This passage reports MIC and Activity results from ChEMBL document CHEMBL3217659, “Synthesis and antifungal activity of 1,5-disubstituted-1,2,3-triazole containing fluconazole analogues” (Medchemcomm, 2012).

For data set [1], the system named is Cryptococcus neoformans. Briefly: Antifungal activity against Cryptococcus neoformans after 72 hrs by microbroth dilution technique. The class given is functional. On the technique in general: Broth dilution looks for growth in wells or tubes with falling amounts of substance.
In data set [2] the test system is Sporothrix schenckii. Briefly: Antifungal activity against Sporothrix schenckii after 72 hrs by microbroth dilution technique. The format is functional.
Data set [3] relates to Trichophyton mentagrophytes. Briefly: Antifungal activity against Trichophyton mentagrophytes after 96 hrs by microbroth dilution technique. The class given is functional.
In data set [4] the test system is Candida albicans. Briefly: Antifungal activity against Candida albicans after 48 hrs by microbroth dilution technique. The class given is functional.
In data set [5] the test system is Candida parapsilosis. Briefly: Antifungal activity against Candida parapsilosis after 48 hrs by microbroth dilution technique. The format is functional.
The subject of data set [6] is Aspergillus fumigatus. Briefly: Antifungal activity against Aspergillus fumigatus after 72 hrs by microbroth dilution technique. The class given is functional.
Data set [7] has as its system L929. Briefly: Cytotoxicity against mouse L929 cells up to 3.12 ug/ml after 24 hrs using Giemsa staining by phase contrast microscopy. The format is cell-based. The conditions noted are these: l929, 24 h.
Data set [8] deals with L929. Put plainly: Cytotoxicity against mouse L929 cells at >3.12 ug/ml after 24 hrs using Giemsa staining by phase contrast microscopy. The class given is cell-based. The conditions noted are these: l929, 24 h.
Where [9] appears, read: Cryptococcus neoformans, 72 h, read-out: MIC.
Where [10] appears, read: Sporothrix schenckii, 72 h, read-out: MIC.
The mark [11] stands for this setting: Trichophyton mentagrophytes, 96 h, read-out: MIC.
Where [12] appears, read: Candida albicans, 48 h, read-out: MIC.
Where [13] appears, read: Lodderomyces parapsilosis, 48 h, read-out: MIC.
The mark [14] stands for this setting: Aspergillus fumigatus, 72 h, read-out: MIC.

Converted amounts (≈) assume the structure as drawn. Bounds are passed on as bounds.

In the case of `CCCCCCCCn1nncc1CC(O)(Cn1cncn1)c1ccc(F)cc1F` (racemic), the MIC (as a rule, the lowest concentration found to suppress growth) in data set [1] (setting [9]) was 50 µg/mL (≈ 119 µM); in data set [2] (setting [10]), 6.25 µg/mL (≈ 14.9 µM); in data set [3] (setting [11]), 50 µg/mL (≈ 119 µM); in data set [4] (setting [12]), 0.39 µg/mL (≈ 0.932 µM); in data set [5] (setting [13]), 50 µg/mL (≈ 119 µM); in data set [6] (setting [14]), above 50 µg/mL.

With `CCCCCCCCn1cc(CC(O)(Cn2cncn2)c2ccc(F)cc2F)nn1` (stereo in doubt; 2A), the MIC in data set [2] is 0.0225 µg/mL (≈ 0.0538 µM); in data set [3], 0.19 µg/mL (≈ 0.454 µM); in data set [4] it was 0.0011 µg/mL (≈ 0.00263 µM); in data set [5], 0.0011 µg/mL (≈ 0.00263 µM).

In the case of `CCCCCCc1cn(C[C@](O)(Cn2cncn2)c2ccc(F)cc2F)nn1`, the MIC in data set [1] (setting [9]) was 50 µg/mL (≈ 128 µM); in data set [2] (setting [10]), 50 µg/mL (≈ 128 µM); in data set [3] (setting [11]), 50 µg/mL (≈ 128 µM); in data set [4] (setting [12]) it was 50 µg/mL (≈ 128 µM); in data set [5] (setting [13]) it was above 50 µg/mL; in data set [6] (setting [14]), above 50 µg/mL.

In the case of `CCCCCCc1cnnn1CC(O)(Cn1cncn1)c1ccc(F)cc1F` (stereo in doubt; 9A), the MIC was 50 µg/mL (≈ 128 µM) in data set [1]; 1.56 µg/mL (≈ 4 µM) in data set [2]; 0.039 µg/mL (≈ 0.0999 µM) in data set [4]; 50 µg/mL (≈ 128 µM) in data set [5]; above 50 µg/mL in data set [6].

As for `CCCCCCc1cn(C[C@@](O)(Cn2cncn2)c2ccc(F)cc2F)nn1`, the minimal inhibitory concentration (MIC) in data set [1] (setting [9]) came to 50 µg/mL (≈ 128 µM); in data set [2] (setting [10]) it was 0.78 µg/mL (≈ 2 µM); in data set [3] (setting [11]), 6.25 µg/mL (≈ 16 µM); in data set [4] (setting [12]), 0.0225 µg/mL (≈ 0.0576 µM); in data set [5] (setting [13]) it was 0.19 µg/mL (≈ 0.487 µM); in data set [6] (setting [14]), 50 µg/mL (≈ 128 µM).

In the case of `OC(Cn1cncn1)(Cn1cncn1)c1ccc(F)cc1F` [FLUCONAZOLE], the MIC in data set [1] (setting [9]) was 1 µg/mL (≈ 3.27 µM); in data set [2] (setting [10]) it was 2 µg/mL (≈ 6.53 µM); in data set [3] (setting [11]), 1 µg/mL (≈ 3.27 µM); in data set [4] (setting [12]) it was 0.5 µg/mL (≈ 1.63 µM); in data set [5] (setting [13]), 1 µg/mL (≈ 3.27 µM); in data set [6] (setting [14]), 2 µg/mL (≈ 6.53 µM).

`C[C@@H]1[C@H](O)[C@@H](C)/C=C/C=C/C=C/C=C/C=C/C=C/C=C/[C@H](O[C@@H]2O[C@H](C)[C@@H](O)[C@H](N)[C@@H]2O)C[C@@H]2O[C@](O)(C[C@@H](O)C[C@@H](O)[C@H](O)CC[C@@H](O)C[C@@H](O)CC(=O)O[C@H]1C)C[C@H](O)[C@H]2C(=O)O` [AMPHOTERICIN B]: the minimal inhibitory concentration (MIC) turned out to be 0.06 µg/mL (≈ 0.0649 µM) in data set [1] (setting [9]); 0.12 µg/mL (≈ 0.13 µM) in data set [2] (setting [10]); 0.12 µg/mL (≈ 0.13 µM) in data set [3] (setting [11]); 0.12 µg/mL (≈ 0.13 µM) in data set [4] (setting [12]); 0.12 µg/mL (≈ 0.13 µM) in data set [5] (setting [13]); 0.5 µg/mL (≈ 0.541 µM) in data set [6] (setting [14]).

With `CCCCCCCCn1cc(CC(O)(Cn2cncn2)c2ccc(F)cc2F)nn1` (racemic), the minimum inhibitory concentration (MIC) was found to be 25 µg/mL (≈ 59.7 µM) in data set [1] (setting [9]); 0.045 µg/mL (≈ 0.108 µM) in data set [2]; 0.39 µg/mL (≈ 0.932 µM) in data set [3]; 0.007 µg/mL (≈ 0.0167 µM) in data set [4]; 0.0112 µg/mL (≈ 0.0268 µM) in data set [5]; 3.12 µg/mL (≈ 7.46 µM) in data set [6]. The Activity result is listed as “Non-toxic” in data set [7] and “Toxic” in data set [8].

For `CCCCCCc1cn(CC(O)(Cn2cncn2)c2ccc(F)cc2F)nn1` (racemic), the MIC was 25 µg/mL (≈ 64 µM) in data set [1] (setting [9]); 0.78 µg/mL (≈ 2 µM) in data set [2] (setting [10]); 12.5 µg/mL (≈ 32 µM) in data set [3] (setting [11]); 0.09 µg/mL (≈ 0.231 µM) in data set [4] (setting [12]); 0.39 µg/mL (≈ 0.999 µM) in data set [5] (setting [13]); 25 µg/mL (≈ 64 µM) in data set [6] (setting [14]).

`CCCCCCCCn1cc(CC(O)(Cn2cncn2)c2ccc(F)cc2F)nn1` (stereo in doubt; 2B): the MIC in data set [1] was 25 µg/mL (≈ 59.7 µM); in data set [2] it was 12.5 µg/mL (≈ 29.9 µM); in data set [3], 25 µg/mL (≈ 59.7 µM); in data set [4], 12.5 µg/mL (≈ 29.9 µM); in data set [5], 50 µg/mL (≈ 119 µM); in data set [6], 50 µg/mL (≈ 119 µM).

For `CCCCCCc1cnnn1CC(O)(Cn1cncn1)c1ccc(F)cc1F` (stereo in doubt; 9B), the MIC in data set [1] is above 50 µg/mL; in data set [2], above 50 µg/mL; in data set [3], 50 µg/mL (≈ 128 µM); in data set [4] it was above 50 µg/mL.

For `CCCCCCc1cnnn1CC(O)(Cn1cncn1)c1ccc(F)cc1F` (racemic), the minimum inhibitory concentration (MIC) in data set [1] (setting [9]) is 50 µg/mL (≈ 128 µM); in data set [2], 3.12 µg/mL (≈ 7.99 µM); in data set [3] (setting [11]), 50 µg/mL (≈ 128 µM); in data set [4], 0.078 µg/mL (≈ 0.2 µM); in data set [5] (setting [13]) it was above 50 µg/mL; in data set [6] (setting [14]), 25 µg/mL (≈ 64 µM).
